From patent US20060242739A1, “Plant nucleotide-sugar pyrophosphatase/phosphodiesterase (nppase), method of obtaining same and use of same in the production of assay devices and in the production of transgenic plants” (Universidad Publica De Navarra, priority 2002, published 2006)

How the values were obtained:
[1] = target: T1, NPPase from barley leaves (Hordeum vulgare, UniProt Q687E1); assay: Enzymatic test of soluble NPPase from barley leaves: kinetic parameters, substrate specificity, effectors; conditions: for Vmax: Vmax in % in relation to ADPG, NPPase from barley leaves; for hydrolysis by NPPase (substrate recognition) / effect on NPPase activity (inhibition): qualitative; for Km: substrate of NPPase from barley leaves
T1 sequence (Q687E1 19-368): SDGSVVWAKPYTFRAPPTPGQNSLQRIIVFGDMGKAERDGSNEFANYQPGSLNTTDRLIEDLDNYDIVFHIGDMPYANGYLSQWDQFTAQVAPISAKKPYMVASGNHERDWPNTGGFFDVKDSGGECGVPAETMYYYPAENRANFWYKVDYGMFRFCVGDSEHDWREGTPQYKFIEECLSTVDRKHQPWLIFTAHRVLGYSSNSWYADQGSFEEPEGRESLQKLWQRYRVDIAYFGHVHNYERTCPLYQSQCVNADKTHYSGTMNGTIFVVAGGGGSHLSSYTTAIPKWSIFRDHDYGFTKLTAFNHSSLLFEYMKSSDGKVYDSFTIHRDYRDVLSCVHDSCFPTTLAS

NPPase from rice leaves = NPPase from rice leaves (Oryza sativa, UniProt Q0X0G2); assay: Kinetic parameters and substrate specificity of the NPPase from rice leaves; conditions: substrate of NPPase from rice leaves
Chain of NPPase from rice leaves (Q0X0G2 26-623 limits assumed): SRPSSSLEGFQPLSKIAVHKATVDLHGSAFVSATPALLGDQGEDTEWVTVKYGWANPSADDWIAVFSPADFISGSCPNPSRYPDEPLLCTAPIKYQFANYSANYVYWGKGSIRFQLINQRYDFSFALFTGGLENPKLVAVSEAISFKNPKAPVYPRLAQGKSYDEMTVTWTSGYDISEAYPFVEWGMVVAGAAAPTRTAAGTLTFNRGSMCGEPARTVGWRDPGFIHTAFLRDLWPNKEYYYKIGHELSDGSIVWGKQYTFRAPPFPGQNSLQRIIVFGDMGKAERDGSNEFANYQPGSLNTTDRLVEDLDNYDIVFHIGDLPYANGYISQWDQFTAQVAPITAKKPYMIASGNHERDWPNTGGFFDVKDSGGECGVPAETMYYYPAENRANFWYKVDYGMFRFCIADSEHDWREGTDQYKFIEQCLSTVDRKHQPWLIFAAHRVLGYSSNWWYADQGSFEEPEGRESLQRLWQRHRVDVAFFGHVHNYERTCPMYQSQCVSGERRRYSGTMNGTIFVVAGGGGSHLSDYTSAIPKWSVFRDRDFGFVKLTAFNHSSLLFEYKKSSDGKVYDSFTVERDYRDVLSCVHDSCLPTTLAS

Compound	Vmax [1]	hydrolysis by NPPase (substrate recognition) [1]	effect on NPPase activity (inhibition) [1]	other results
NC(=O)c1ccc[n+]([C@@H]2O[C@H](COP(=O)(O)OP(=O)(O)OC[C@H]3O[C@@H](n4cnc5c(N)ncnc54)[C@H](O)[C@@H]3O)[C@@H](O)[C@H]2O)c1 [NAD^+]	100%	–	–	–
Nc1ncnc2c1ncn2[C@@H]1O[C@H](COP(=O)(O)OP(=O)(O)O[C@H]2O[C@H](CO)[C@@H](O)[C@H](O)[C@@H]2O)[C@@H](O)[C@H]1O [ADPmannose, ADP-mannose]	30%	–	–	–
ADP-ribose [ADPribose]	100%	–	–	–
O=[N+]([O-])c1ccc(OP(=O)(O)O)cc1 [PNPP]	100%	–	–	–
Nc1ccn([C@@H]2O[C@H](COP(=O)(O)OP(=O)(O)O[C@H]3O[C@H](CO)[C@@H](O)[C@H](O)[C@H]3O)[C@@H](O)[C@H]2O)c(=O)n1 [CDPG, CDP-glucose]	114%	–	–	–
Nc1nc2c(ncn2[C@@H]2O[C@H](COP(=O)(O)OP(=O)(O)O[C@H]3O[C@H](CO)[C@@H](O)[C@H](O)[C@H]3O)[C@@H](O)[C@H]2O)c(=O)[nH]1 [GDP-glucose]	–	recognizes	–	–
O=C(O)[C@H](O)COP(=O)(O)O [3-phosphoglycerate]	–	does not hydrolyse	inhibited	–
Nc1ncnc2c1ncn2[C@@H]1O[C@H](COP(=O)(O)O)[C@@H](O)[C@H]1O [PAP, adenosine-5′-phosphate]	n.q.	–	–	Km [1]: n.q.
O=[N+]([O-])c1ccc(OP(=O)(O)Oc2ccc([N+](=O)[O-])cc2)cc1 [bis-PNPP, bis-paranitrophenylphosphate]	100%	hydrolyses	–	–
Nc1nc2c(ncn2[C@@H]2O[C@H](COP(=O)(O)OP(=O)(O)O[C@H]3O[C@H](CO)[C@@H](O)[C@H](O)[C@@H]3O)[C@@H](O)[C@H]2O)c(=O)[nH]1 [GDPmannose, GDP-mannose]	30%	–	–	–
Nc1ncnc2c1ncn2[C@@H]1O[C@H](COP(=O)(O)OS(=O)(=O)O)[C@@H](O)[C@H]1O [APS, adenosine 5′-phosphosulphate]	–	–	–	Vmax (NPPase from rice leaves): 282 μmol min^−1 (mg protein)^−1
Nc1ncnc2c1ncn2[C@@H]1O[C@H](COP(=O)(O)O)[C@@H](O)[C@H]1O [AMP]	–	does not hydrolyse	inhibited	–
OCCS [β-mercaptoethanol]	–	–	not affected	–
O=C[C@H](O)[C@@H](O)[C@H](O)[C@H](O)COP(=O)(O)O [G6P, glucose-6-phosphate]	–	does not hydrolyse	–	–
NC(=O)c1ccc[n+]([C@@H]2O[C@H](COP(=O)([O-])OP(=O)(O)OC[C@H]3O[C@@H](n4cnc5c(N)ncnc54)[C@H](OP(=O)(O)O)[C@@H]3O)[C@@H](O)[C@H]2O)c1 [NADP^+]	n.q.	–	–	Km [1]: n.q.
O=P(O)(O)OP(=O)(O)O [PPi, inorganic pyrophosphate]	–	–	–	Vmax (NPPase from rice leaves): 176 μmol min^−1 (mg protein)^−1
arsenate	–	–	strongly inhibited	–
Nc1ncnc2c1ncn2[C@@H]1O[C@H](COP(=O)(O)OP(=O)(O)O[C@H]2O[C@H](CO)[C@@H](O)[C@H](O)[C@H]2O)[C@@H](O)[C@H]1O [ADPG, ADPglucose]	100%	catalyses the hydrolysis	–	–
[O]=[Mo](=[O])([O-])[O-] [molybdate]	–	–	strongly inhibited	–
Nc1ncnc2c1ncn2[C@@H]1O[C@H](COP(=O)(O)OP(=O)(O)O)[C@@H](O)[C@H]1O [ADP]	40%	–	inhibited	–
